± gives the expanded uncertainty stated by the source.
How the values were obtained:
[1] = Molar enthalpy of transition or fusion

Row | Molar enthalpy of transition or fusion ([1]; Crystal 1) | Molar enthalpy of transition or fusion ([1]; Crystal 2) | Glass transition temperature (Adiabatic calorimetry) | Triple point temperature (Crystal) | Glass transition temperature | SMILES | Triple point temperature (Crystal 1) | Triple point temperature (Crystal 2) | Triple point temperature (Crystal 3) | Molar enthalpy of transition or fusion ([1]; Crystal 3)
1 | 0.693 ± 0.0478 kcal/mol | 0.98 ± 0.0478 kcal/mol | – | – | – | CC(C)(C)CO [2,2-dimethyl-1-propanol] | 328.2 ± 0.4 K | 233.3 ± 1 K | – | –
2 | – | – | -155 ± 5 °C | – | – | CCC(C)CO (stereo not drawn) [2-methyl-1-butanol] | – | – | – | –
3 | 0.397 ± 0.0478 kcal/mol | – | – | 203.2 ± 0.4 K | -143 ± 5 °C | CCC(O)CC [3-pentanol] | – | – | – | –

Row | SMILES | Molar enthalpy of transition or fusion ([1]; Crystal 1) | Molar enthalpy of transition or fusion ([1]; Crystal 2) | Glass transition temperature (Adiabatic calorimetry) | Triple point temperature (Crystal) | Glass transition temperature | Triple point temperature (Crystal 1) | Triple point temperature (Crystal 2) | Triple point temperature (Crystal 3) | Molar enthalpy of transition or fusion ([1]; Crystal 3)
4 | CCC(C)(C)O [2-methylbutan-2-ol] | 0.478 ± 0.0478 kcal/mol | – | – | – | – | 264.7 ± 0.4 K | 215 ± 1 K | 145.8 ± 0.4 K | 0.215 ± 0.0239 kcal/mol
